Source: publication PMC6814738, “Bacterial MgrB peptide activates chemoreceptor Fpr3 in mouse accessory olfactory system and drives avoidance behaviour” (Nature Communications, 2019)
Where “and” joins values, the source holds several entries; their conditions need not be identical. Equal entries are not always repeated.

Legend:
mouse Fpr3 (Fpr-rs1) = target: T1, mouse Fpr3 (Fpr-rs1) (Mus musculus, UniProt O08790); assay: Heterologous expression / high-throughput Ca2+ imaging agonist screen and sequence selectivity of Fpr3 (Fig. 1a, 2c-e, 2g, 2i); format: cell-based; settings: mean of n = 3 experiments in triplicate (n = 5 for f-MKKFRW), Fpr3 + Gα16 HEK293T, Fluo-4/AM, FLIPR, buffer C1 pH 7.2, mock 0.059-0.060
T1 construct: expressed in transfected cells; host or cells: HEK293T (DSMZ # ACC-635), transient transfection with jetPEI
T1 sequence (O08790 1-351): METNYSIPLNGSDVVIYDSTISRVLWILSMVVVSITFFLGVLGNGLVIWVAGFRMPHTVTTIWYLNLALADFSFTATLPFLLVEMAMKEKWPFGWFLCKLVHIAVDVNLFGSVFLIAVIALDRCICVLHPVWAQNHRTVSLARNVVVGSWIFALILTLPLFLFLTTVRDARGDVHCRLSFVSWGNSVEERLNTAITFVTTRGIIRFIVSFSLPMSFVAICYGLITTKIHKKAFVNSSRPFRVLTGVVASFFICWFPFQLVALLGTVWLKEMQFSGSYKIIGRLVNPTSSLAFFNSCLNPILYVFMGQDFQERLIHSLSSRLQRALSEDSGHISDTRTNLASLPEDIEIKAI
Experimental: An Fpr3 gene subcloned from genomic DNA of C57BL/6J mice into pcDNA3.1 (Invitrogen) was used in heterologous experiments[21],[80]. HEK293T (DSMZ # ACC-635) cells were seeded at 20–30% confluence on poly-D-lysine-coated (10 µg/ml in PBS) black 96-well µCLEAR-Plates (Greiner Bio-One). Cells were transfected 24 h later using jetPEI™ (Polyplus-transfection SA) according to the manufacturer’s protocol for 96-well transfections. For Ca^2+ imaging experiments, 0.125 µg of DNA plasmid encoding Fpr3 were cotransfected with equal amounts of a plasmid encoding Gα16, a promiscuous G protein α-subunit. Ca^2+ signals to agonist stimulation were recorded 48 h post transfection using the Ca^2+ indicator dye Fluo-4/AM (Molecular Probes) and a fluorescence imaging plate reader (FLIPR) system (Molecular Devices). Cotransfection of a plasmid encoding Gα16 with an empty vector used to subclone Fpr3 gave no agonist-evoked Ca^2+ responses.
We used custom-made peptides with a length of 6–21 amino acids to screen for agonists. Sequences of fMet peptides were designed according to motifs present at the N-termini of 15,125 specific bacterial proteins as annotated in UniProt. Peptides were chemically synthesised, purified, and verified by mass spectroscopy (MALDI-TOF) by commercial suppliers. Purity of all peptides was >95%. Source, sequence and purity of each peptide are listed in Supplementary Data 1. Lyophilised peptides were routinely dissolved in the Ca^2+ imaging assay buffer C1 (130 mM NaCl, 10 mM HEPES, 5 mM KCl, 2 mM CaCl2, 5 mM glucose, pH 7.2) as 0.2–1 mM stock solutions and kept in small aliquots at −20 °C until use. […] The sequences of these peptides exist in proteins from the following bacterial strains[21]: Psychromonas ingrahamii that belongs to a marine ice water microbial community, Desulfotomaculum reducens that is found in deep freshwater lakes, and Pseudomonas grimontii, a plant pathogen. As mice are unlikely to encounter these strains in their natural habitat, these findings are probably not of biological relevance.

male mice = assay: Behavioural avoidance test, FEU vs. FEU supplemented with peptide (Fig. 8, Supplementary Fig. 4); format: in vivo, mouse; settings: Fig. 8c, B6 mice
Experimental: These assays were adapted from behavioural procedures described previously[14],[60]. We tested avoidance by giving adult male mice (8–14 week old) of various genotypes a choice to freely investigate two types of chemical stimuli: FEU vs. FEU supplemented with a peptide. Mice were sexually naïve and not exposed to the test stimuli prior to the testing day. Mice were habituated for three days (40 min each day) to clean filter papers (2.5 cm diameter), each deposited in a sterile plastic culture dish and placed in opposite corners of the test cage (30 × 12 cm). After the third habituation period, the test subject was transferred into a new cage containing fresh filter papers/dishes with either of the two test stimuli. One filter paper was impregnated with 45 µl of fresh urine pooled from two sexually naïve female B6 mice (8–16 weeks old) in oestrus (FEU, female oestrous urine) and 5 µl physiological solution containing (in mM): NaCl, 130; KCl, 5; Na-Hepes, 10; CaCl2, 2; glucose, 10; pH = 7.4. For testing the effects of specific peptides, the second filter paper was impregnated with FEU supplemented with a given peptide (100 or 50 µM final concentration, dissolved in physiological solution). Direct physical contact was allowed. Behaviour was recorded for 10 min from the top of the cage. Mice were exposed only once to a given peptide solution, and were exposed to only one peptide stimulus per day. Stimuli were presented in randomised order. […] This investigative behaviour was quantified as the time spent in close contact with each filter paper, scored manually by an observer blind to the experimental conditions using Behavioural Observation Research Interactive Software (BORIS)[85]. Contact time was measured as the time during which the nose crossed the border of a petri dish containing impregnated filter paper. An avoidance index was calculated as (TP — aTU)/(aTP + aTU), with TP as the time an individual mouse investigated a FEU-peptide mixture, aTP as the average time of all tested mice investigating this stimulus and aTU as the average time of all mice investigating FEU without added peptide. Negative values represent avoidance and positive values represent attraction. For analysing investigation of sick conspecifics, B6 mice were injected either with LPS or PBS as described above. In total, 4 h post injection, these mice were anaesthetised with 165 mg/kg ketamine (Pharmacia GmbH, Berlin, Germany) and 11 mg/kg xylazine (Bayer Health Care, Leverkusen, Germany) and then used in behavioural tests.

Substance | Ca2+ response, mean (mouse Fpr3 (Fpr-rs1); 3 µM) | Ca2+ response, mean (mouse Fpr3 (Fpr-rs1); 30 µM) | Preference Index (male mice; individual values) | Preference Index (male mice; mean, n = 11 f-MKKFRW, 11 MKKFRW, 10 f-MGFFIS, 10 f-MEQQNK, FEU control -0.002)
f-MTNMRK [synthesized fMet peptide] | 0.089 ∆F/F | 0.060 ∆F/F | – | –
f-MFIYYCK [synthesized fMet peptide] | 0.053 ∆F/F | 0.042 ∆F/F | – | –
f-MTHQTH [synthesized fMet peptide] | 0.064 ∆F/F | 0.077 ∆F/F | – | –
f-MKKISKFLP [synthesized fMet peptide] | 0.055 ∆F/F | 0.072 ∆F/F | – | –
f-MKKNLV [synthesized fMet peptide] | 0.052 ∆F/F | 0.053 ∆F/F | – | –
f-MKFCTA [synthesized fMet peptide] | 0.034 ∆F/F | 0.080 ∆F/F | – | –
f-MINKKI [synthesized fMet peptide] | 0.058 ∆F/F | 0.045 ∆F/F | – | –
f-MLFKYS [synthesized fMet peptide] | 0.054 ∆F/F | 0.048 ∆F/F | – | –
f-MPSTFF [synthesized fMet peptide] | 0.063 ∆F/F | 0.065 ∆F/F | – | –
f-MNPITL [synthesized fMet peptide] | 0.053 ∆F/F | 0.062 ∆F/F | – | –
f-MLFKYL [synthesized fMet peptide] | 0.053 ∆F/F | 0.056 ∆F/F | – | –
f-MVKIIF [synthesized fMet peptide] | 0.045 ∆F/F | 0.054 ∆F/F | – | –
f-MKNFKG [synthesized fMet peptide, bacterial signal peptide fragment] | 0.065 ∆F/F | 0.052 ∆F/F | – | –
f-MAQDIISTI [synthesized fMet peptide] | 0.079 ∆F/F | 0.075 ∆F/F | – | –
f-MLKIIL [synthesized fMet peptide] | 0.057 ∆F/F | 0.057 ∆F/F | – | –
f-MMKMEG [synthesized fMet peptide] | 0.048 ∆F/F | 0.040 ∆F/F | – | –
f-MNIFTT [synthesized fMet peptide] | 0.059 ∆F/F | 0.065 ∆F/F | – | –
f-MVPISI [synthesized fMet peptide] | 0.048 ∆F/F | 0.044 ∆F/F | – | –
f-MNKKLL [f-MNKLL, synthesized fMet peptide] | 0.038 ∆F/F | 0.039 ∆F/F | – | –
f-MPKLNR [synthesized fMet peptide] | 0.048 ∆F/F | 0.033 ∆F/F | – | –

Substance | Ca2+ response, mean (mouse Fpr3 (Fpr-rs1); 3 µM) | Ca2+ response, mean (mouse Fpr3 (Fpr-rs1); 30 µM) | Preference Index (male mice; individual values) | Preference Index (male mice; mean, n = 11 f-MKKFRW, 11 MKKFRW, 10 f-MGFFIS, 10 f-MEQQNK, FEU control -0.002)
f-MKKHRW [synthesized fMet peptide] | 0.061 ∆F/F | 0.054 ∆F/F | – | –
f-MEQQNK [synthesized fMet peptide] | 0.047 ∆F/F | 0.050 ∆F/F | -0.06064 and -0.05774 and -0.1328 and -0.09632 and 0.7296 and -0.0445 and 0.1064 and -0.1977 and 0.2779 and -0.1553 | 0.0369
f-MKTSIR [synthesized fMet peptide] | 0.055 ∆F/F | 0.049 ∆F/F | – | –
f-MPQLDT [synthesized fMet peptide] | 0.060 ∆F/F | 0.058 ∆F/F | – | –
f-MKKLLNKIV [synthesized fMet peptide] | 0.056 ∆F/F | 0.054 ∆F/F | – | –
f-MKKTLSLKN [synthesized fMet peptide] | 0.068 ∆F/F | 0.058 ∆F/F | – | –
f-MEFVAK [synthesized fMet peptide] | 0.051 ∆F/F | 0.076 ∆F/F | – | –
f-MKKFYS [synthesized fMet peptide] | 0.058 ∆F/F | 0.056 ∆F/F | – | –
f-MKKFLL [synthesized fMet peptide] | 0.052 ∆F/F | 0.050 ∆F/F | – | –
f-MAYPFQ [synthesized fMet peptide] | 0.059 ∆F/F | 0.061 ∆F/F | – | –
f-MTNKIS [synthesized fMet peptide] | 0.052 ∆F/F | 0.049 ∆F/F | – | –
f-MAMKKL [synthesized fMet peptide] | 0.058 ∆F/F | 0.059 ∆F/F | – | –
f-MVMKFK [synthesized fMet peptide] | 0.053 ∆F/F | 0.050 ∆F/F | – | –
f-MKKIML [synthesized fMet peptide] | 0.050 ∆F/F | 0.055 ∆F/F | – | –
f-MKKYKRLLL [synthesized fMet peptide] | 0.074 ∆F/F | 0.065 ∆F/F | – | –
f-MKKFNI [synthesized fMet peptide] | 0.053 ∆F/F | 0.044 ∆F/F | – | –
f-MEFVAKLFK [synthesized fMet peptide] | 0.071 ∆F/F | 0.062 ∆F/F | – | –
f-MLNKKKRGN [synthesized fMet peptide] | 0.056 ∆F/F | 0.058 ∆F/F | – | –
f-MKKWRW [synthesized fMet peptide] | 0.056 ∆F/F | 0.063 ∆F/F | – | –
